Assay results from patent US12622918B2, “Formulations and dosages for administering a compound that inhibits MCL1 protein” (Amgen Inc., priority 2019, dated 2026).

Test system: OPM2-Luc orthotopic tumors
Test: OPM2-Luc multiple myeloma orthotopic model, AMG 176 plus carfilzomib
Assay type: in vivo
Settings: carfilzomib 3 mg/kg IV twice weekly
Protocol: On day 0, female NSG mice were injected IV with 1×10^6 OPM2-Luc human OPM2-Luc multiple myeloma tumor cells transfected with the firefly luciferase gene.

For `CC(C)C[C@H](NC(=O)[C@H](CCc1ccccc1)NC(=O)CN1CCOCC1)C(=O)N[C@@H](Cc1ccccc1)C(=O)N[C@@H](CC(C)C)C(=O)[C@@]1(C)CO1` [carfilzomib], the “TGI (tumor burden)” value (AMG 176 20 mg/kg orally once daily, day 4 until day 20, female NSG mice) was 82% and the tolerability (NSG mice) was “Unscheduled deaths”.
